According to PMC10303920, “Competition between skin antimicrobial peptides and commensal bacteria in type 2 inflammation enables survival of S. aureus” (Cell reports, 2023):

Key:
ShA9-WT and ShA9-ΔLanti = test: Growth inhibition of ShA9-WT and ShA9-ΔLanti by human and murine AMPs (OD600); format: cell-based, Staphylococcus hominis; settings: 90% RPMI/10% TSB, 30°C, 24 h, mean of duplicate technical replicates, Figure 4E
Description: Staphylococcus strains collected from normal skin from healthy subjects or lesional skin from AD patients were cultured in TSB overnight. Bacteria were washed with PBS and resuspended to 90% RPMI media and 10% TSB. Bacteria (1 × 10^5 CFU/mL) were incu bated with or without human AMPs (LL-37, hBD-2, hBD-3) or mouse cathelin-related AMP (CRAMP) in 90% RPMI media and 10% TSB (100 μL) in each well of a 96-well plate at 30°C for 24 h. Bacterial growth was assessed by measuring OD600. Minimal inhibitory concentration was defined as the lowest concentration which prevent visible bacterial growth (<5% of OD600 value of the con trol well).

[1] = system: CoNS-AM+ strains of S. epidermidis or S. hominis; test: Bacterial survival on pigskin, antibiotic-producing CoNS; format: cell-based; settings: LL-37 2.5 nmol on 2.5 × 2.5 cm pigskin sheet, 1 × 10^6 CFU, 30°C, 24 h; Figure 4F
Description: (§1) Fresh-frozen pigskin sheets were obtained from Loretta Tomlin Animal Technologies (Livermore, CA) and sanitized by surgical brush with 3% chloroxylenol. The skin sheet was cut into 2.5 cm × 2.5 cm and rinsed with sterile PBS more than 20 times to remove chloroxylenol residue. Synthetic LL-37 (2.5nanomol/50μL H2O) or equal volume of vehicle was applied to the surface of sanitized pig skin. Antibiotic-producing or non-antibiotic-producing strain of CoNS (1 × 10^6 CFU/10μL PBS) was applied on the pigskin. Pigskin sheet was placed on a 6-well plate and incubated at 30°C for 24 h. The entire skin sheet was rubbed 50 times with nylon foam swab (Puritan) pre-moisturized with PBS to collect bacteria on the skin surface. Swab sample was suspended in 1mL of 85% TSB/15% glycerol and frozen until analysis.

[2] = system: CoNS-AM− strains of S. epidermidis or S. hominis; test: Bacterial survival on pigskin, non-antibiotic-producing CoNS; format: cell-based; settings: LL-37 2.5 nmol on 2.5 × 2.5 cm pigskin sheet, 1 × 10^6 CFU, 30°C, 24 h; Figure 4F
Description: as §1

[3] = system: CoNS with antimicrobial activity within the microbial community of human skin swabs; test: Effect of low dose LL-37 on mixed bacterial communities from healthy human forearm skin in vitro; format: cell-based, coagulase-negative Staphylococcus; settings: skin swabs from forearms of 5 healthy subjects, media with a low dose of LL-37, 4 h; Figure 4H
Description: Finally, the capacity of AMPs to shape the composition of the skin CoNS community was evaluated by examining the effects of LL-37 on survival of mixed communities of bacteria obtained from human skin (Figure 4G). Skin swab samples were obtained from the forearms of 5 healthy subjects (Table S4), and these mixed bacterial samples were incubated in media without or with a low dose of LL-37 for 4 h.
Individual isolated colonies of CoNS from human skin were grown on mannitol-salt agar with egg yolk (pink color without egg yolk reaction), randomly picked and transferred to individual wells containing TSB (400μL) in a 96-well cluster tube. Each plate also contained wells with a non-antimicrobial strain of S. epidermidis (S. epidermidis 1457) as a negative control, a potent antimicrobial strain of Staphylococcus hominis (A9 strain) as positive control, and blank wells without bacteria. CoNS were cultured at 37°C overnight with shaking. Growth was evaluated by OD600. Bacteria were removed by centrifugation followed by sterile filtration with a 0.22μm membrane. Sterile conditioned media were mixed with fresh TSB at 1:1. The antimicrobial activity released from each CoNS clone was evaluated by culturing 1 × 10^4 CFU of S. aureus (ATCC35556) in 200μL of diluted conditioned media at 30°C for 24 h. […] To determine frequency of antimicrobial CoNS, up to 48 CoNS vvvcolonies were analyzed.

ShA9-ΔLanti [4] = test: Synergistic antimicrobial assay between LL-37 and ShA9 lantibiotics; format: cell-based, Staphylococcus hominis; settings: sub-antimicrobial doses of LL-37 (4 or 8 μM) plus conditioned medium from ShA9-WT, 90% RPMI/10% TSB, 30°C, 24 h; Figure 5A
Description: ShA9 or S. epidermidis A11 strains, lantibiotic producing CoNS, were cultured in TSB at 37°C with shake overnight. Bacteria were removed by centrifugation, followed by sterile filtration with 0.22μm membrane. Lantibiotics from each strain was precipitated by adding ammonium sulfate into the sterile conditioned media at 70% saturation. The ammonium sulfate precipitation of conditioned media were dissolved in 90% RPMI1640 supplemented by 10% TSB. ShA9-DLanti mutant or S. hominis C6 strain were cultured in TSB at 37°C overnight and washed with PBS. These strain was incubated with conditioned media precipitation (0–100%) along with 0, 4, 8mM of LL-37 in 90% RPMI/10% TSB at 30°C for 24 h. Concentration of conditioned media precipitation added was calculated based on the original volume of sterile conditioned media. Bacterial survival was evaluated by measuring OD600 or counting CFUs.

S. hominis C6 strain = test: Synergistic antimicrobial assay between LL-37 and Pep-5; format: cell-based, Staphylococcus hominis; settings: strain lacking antimicrobial activity; 90% RPMI/10% TSB, 30°C, 24 h; Figure S9
Description: ShA9 or S. epidermidis A11 strains, lantibiotic producing CoNS, were cultured in TSB at 37°C with shake overnight. Bacteria were removed by centrifugation, followed by sterile filtration with 0.22μm membrane. Lantibiotics from each strain was precipitated by adding ammonium sulfate into the sterile conditioned media at 70% saturation. The ammonium sulfate precipitation of conditioned media were dissolved in 90% RPMI1640 supplemented by 10% TSB. ShA9-DLanti mutant or S. hominis C6 strain were cultured in TSB at 37°C overnight and washed with PBS. These strain was incubated with conditioned media precipitation (0–100%) along with […] of LL-37 in 90% RPMI/10% TSB at 30°C for 24 h. Concentration of conditioned media precipitation added was calculated based on the original volume of sterile conditioned media. Bacterial survival was evaluated by measuring OD600 or counting CFUs.

ShA9-WT = test: Transmission electron microscopy of ShA9-WT; format: cell-based, Staphylococcus hominis; settings: LL-37 (2 μM), 30°C, 30 min; Figure 5B
ShA9-ΔLanti [5] = test: Transmission electron microscopy of ShA9-ΔLanti; format: cell-based, Staphylococcus hominis; settings: 30°C, 30 min, Figure 5C
Description: To observe the effect of synergistic antimicrobial action between host AMP and lantibiotic on ShA9, ShA9-DLanti mutant were incubated in 90% RPMI media/10% TSB containing LL-37 ([…]), ammonium sulfate precipitation fraction of conditioned media from ShA9-WT (25% calculated from the original volume of media), or combination at 30°C for 30 min. Bacterial cells were washed with PBS twice and immediately fixed by re-suspending in modified Karnovsky’s fixative for 4 h, followed by 1% osmium tetroxide in 0.1 M cacodylate buffer for 1 h on ice. The cells were stained with 2% uranyl acetate for 1 h on ice, dehydrated in a graded series of ethanol (50–100%), washed with acetone, and then embedded with Durcupan. Sections (60 nm) were post-stained with 2% uranyl acetate for 5 min and Sato’s lead stain for 1 min. Grids were viewed using a JEOL JEM-1400Plus (JEOL, Peabody, MA) transmission electron microscope and photographed using a Gatan OneView 4 K digital camera (Gatan, Pleasanton, CA).

**Q.** What does the source list for LL-37?
**A.** Sensitivity of ShA9-WT to the AMP compared with ShA9-ΔLanti (growth inhibition) (ShA9-WT and ShA9-ΔLanti): more sensitive; Survival of CoNS strains with antibiotic activity on pigskin [1]: inhibited survival; Survival of CoNS strains without antibiotic activity on pigskin [2]: did not inhibit; Relative proportion of CoNS with antimicrobial activity in mixed bacterial samples [3]: decreased; Growth of ShA9-ΔLanti with the combination of LL-37 and ShA9 CM containing lantibiotics (ShA9-ΔLanti [4]): synergistically inhibited growth; Antimicrobial interaction of LL-37 combined with Pep-5 on S. hominis C6 (S. hominis C6 strain): synergy; Electron microscopy findings in ShA9-WT after exposure (ShA9-WT): disruption of cytoplasmic membrane integrity and development of a mesosome-like structure within the cytosol; Electron microscopy findings in ShA9-ΔLanti after exposure to the single agent alone (ShA9-ΔLanti [5]; LL-37 or ShA9-CM alone): did not show these changes; Electron microscopy findings in ShA9-ΔLanti after the combination of lantibiotic-containing CM and LL-37 (ShA9-ΔLanti [5]; combination): promote membrane damage
